Assay results published in patent publication US4687778A, “Anti-amnestic agent” (Kabushiki Kaisha Yakult Honsha, priority 1984, dated 1987).
Residues, ends and D or L forms follow the SMILES beside them. *: point of attachment. Cbz = O=C(OCc1ccccc1)*; Boc = CC(C)(C)OC(=O)*; CH2Cl = ClC*

Tests used:
[1] = system: experimental amnestic rats; assay: passive avoidance response of rats (scopolamine-induced amnesia), retention test; format: in vivo, male Wister SLC rat; settings: scopolamine 3 mg/kg i.p.
Protocol: The method of assay of the anti-amnestic action was carried out according to the method reported by A. Kubota et al. in Int. […] A passive avoidance chamber used in this test was surrounded with inside-visible transparent plastic plates and included an electrifiable grid floor (30 cm in length and 30 cm in width) capable of being derivered with an electric current of 1.7 mA in strength for electric foot shock and a platform (15 cm in length, 15 cm in width and 4 cm in height) placed at the right back corner thereof. A male Wister SLC rat (weighing 100-150 g) was placed in the passive avoidance chamber and, when he stepped down on the floor, the electric current was sent to the grid continuously until he went up on the platform. Repeating this test with another rat, the rats stayed on the platform for more than 15 seconds were taken out of the chamber, being regarded to have learned the situation. This electric shock was normally 2 or 3 times. To avoid any difference in the rats, those required 10 seconds for the first step-down and those stepped down on the floor at least 5 times were excluded. Among the learned or trained rats, the first control group of them were intraperitoneally administered with 0.5% CMC solution and the other groups of them were intraperitoneally administered with scopolamine hydrobromide in a dose of 3 mg/Kg to prepare experimental amnestic rats. The prolinal derivatives of the general formula to be tested were in each case intraperitoneally or orally administered to the rats in an amount shown in Table 1 or 2 one after completion of the learning. In each case, the polinal derivatives are used as having been dissolved or suspended in a 0.5% CMC solution.

Toxicity test (LD50) = settings: mouse, in vivo; ip, ICR male mice
Protocol: Using 4-weeks-old male ICR mice weighing 15-20 g, the value of LD50 was calculated by orally or intraperitoneally administering the prolinal derivatives to the mice and counting the deceased mice according to the conventional method.

[2] = system: proline-specific endopeptidase (post-proline cleaving enzyme); settings: cited from earlier work

CC(=O)NCC(=O)N1CCC[C@H]1C=O [Acetyl-glycyl-prolinal, acetyl-glycyl-prolinal] (Ac-Gly-Pro-aldehyde)
Retention Test Latency, 24 hr ([1]; 1.3 mg/kg i.p. after training): 274.9 s | Retention Test Latency, 48 hr ([1]; 1.3 mg/kg i.p. after training): 198.6 s | Retention Test Latency, 24 hr ([1]; 1.3 mg/kg p.o. after training): 221.6 s | Retention Test Latency, 48 hr ([1]; 1.3 mg/kg p.o. after training): 143.2 s | LD50 (Toxicity test (LD50)): > 1000 mg/kg

CC(=O)N1CCC[C@H]1C(=O)N1CCC[C@H]1C=O [Acetyl-prolyl-prolinal, acetyl-prolyl-prolinal] (Ac-Pro-Pro-aldehyde)
Retention Test Latency, 24 hr ([1]; 2.3 mg/kg i.p. after training): > 300.0 s | Retention Test Latency, 48 hr ([1]; 2.3 mg/kg i.p. after training): > 300.0 s | Retention Test Latency, 24 hr ([1]; 2.3 mg/kg p.o. after training): 204.2 s | Retention Test Latency, 48 hr ([1]; 2.3 mg/kg p.o. after training): 177.4 s | LD50 (Toxicity test (LD50)): 767 mg/kg

C[C@H](NC(=O)OCc1ccccc1)C(=O)N1CCC[C@H]1C=O [N--Benzyloxycarbonyl-alanyl-prolinal, N-benzyloxycarbonyl-alanyl-prolinal] (Cbz-Ala-Pro-aldehyde)
Retention Test Latency, 24 hr ([1]; 2.0 mg/kg i.p. after training): 189.0 s | Retention Test Latency, 48 hr ([1]; 2.0 mg/kg i.p. after training): 203.4 s | Retention Test Latency, 24 hr ([1]; 2.0 mg/kg p.o. after training): 165.4 s | Retention Test Latency, 48 hr ([1]; 2.0 mg/kg p.o. after training): 155.2 s | LD50 (Toxicity test (LD50)): 954 mg/kg

O=C[C@@H]1CCCN1C(=O)CNC(=O)OCc1ccccc1 [N--Benzyloxycarbonyl-glycyl-prolinal, N-benzyloxycarbonyl-glycyl-prolinal] (Cbz-Gly-Pro-aldehyde)
Retention Test Latency, 24 hr ([1]; 1.9 mg/kg i.p. after training): > 300.0 s | Retention Test Latency, 48 hr ([1]; 1.9 mg/kg i.p. after training): > 300.0 s | Retention Test Latency, 24 hr ([1]; 1.9 mg/kg p.o. after training): 230.4 s | Retention Test Latency, 48 hr ([1]; 1.9 mg/kg p.o. after training): 175.5 s | LD50 (Toxicity test (LD50)): > 1000 mg/kg

CC(C)C[C@H](NC(=O)OCc1ccccc1)C(=O)N1CCC[C@H]1C=O [N--Benzyloxycarbonyl-leucyl-prolinal, N-benzyloxycarbonyl-leucyl-prolinal] (Cbz-Leu-Pro-aldehyde)
Retention Test Latency, 24 hr ([1]; 3.5 mg/kg i.p. after training): > 300.0 s | Retention Test Latency, 48 hr ([1]; 3.5 mg/kg i.p. after training): > 300.0 s | Retention Test Latency, 24 hr ([1]; 3.5 mg/kg p.o. after training): 281.6 s | Retention Test Latency, 48 hr ([1]; 3.5 mg/kg p.o. after training): 219.5 s | LD50 (Toxicity test (LD50)): > 1000 mg/kg

O=C[C@@H]1CCCN1C(=O)[C@@H]1CCCN1C(=O)OCc1ccccc1 [N--Benzyloxycarbonyl-prolyl-prolinal, N-benzyloxycarbonyl-prolyl-prolinal] (Cbz-Pro-Pro-aldehyde)
LD50 (Toxicity test (LD50)): > 1000 mg/kg

CC(C)[C@H](NC(=O)OCc1ccccc1)C(=O)N1CCC[C@H]1C=O [N--Benzyloxycarbonyl-valyl-prolinal, N-benzyloxycarbonyl-valyl-prolinal] (Cbz-Val-Pro-aldehyde)
Retention Test Latency, 24 hr ([1]; 2.2 mg/kg i.p. after training): > 300.0 s | Retention Test Latency, 48 hr ([1]; 2.2 mg/kg i.p. after training): > 300.0 s | Retention Test Latency, 24 hr ([1]; 2.2 mg/kg p.o. after training): 254.8 s | Retention Test Latency, 48 hr ([1]; 2.2 mg/kg p.o. after training): 210.5 s | LD50 (Toxicity test (LD50)): 825 mg/kg

O=C(NCC(=O)N1CCC[C@H]1C(=O)CCl)OCc1ccccc1 [N-benzyloxycarbonylglycyl-L-prolyl-chloromethane] (Cbz-Gly-Pro-CH2Cl)
inhibitory action to the endopeptidase [2]: strong inhibitory action

C[C@H](NC(=O)OC(C)(C)C)C(=O)N1CCC[C@H]1C=O [t-Butyloxycarbonyl-alanyl-prolinal, t-butyloxycarbonyl-alanyl-prolinal] (Boc-Ala-Pro-aldehyde)
Retention Test Latency, 24 hr ([1]; 1.8 mg/kg i.p. after training): 293.5 s | Retention Test Latency, 48 hr ([1]; 1.8 mg/kg i.p. after training): 250.4 s | Retention Test Latency, 24 hr ([1]; 1.8 mg/kg p.o. after training): 239.8 s | Retention Test Latency, 48 hr ([1]; 1.8 mg/kg p.o. after training): 226.7 s | LD50 (Toxicity test (LD50)): 796 mg/kg

CC(C)(C)OC(=O)N[C@@H](Cc1ccccc1)C(=O)N1CCC[C@H]1C=O [t-Butyloxycarbonyl-phenylalanyl-prolinal, t-butyloxycarbonyl-phenylalanyl-prolinal] (Boc-Phe-Pro-aldehyde)
Retention Test Latency, 24 hr ([1]; 3.0 mg/kg i.p. after training): > 300.0 s | Retention Test Latency, 48 hr ([1]; 3.0 mg/kg i.p. after training): 264.3 s | Retention Test Latency, 24 hr ([1]; 3.0 mg/kg p.o. after training): > 300.0 s | Retention Test Latency, 48 hr ([1]; 3.0 mg/kg p.o. after training): 250.2 s | LD50 (Toxicity test (LD50)): > 1000 mg/kg

CC(C)(C)OC(=O)N[C@@H](CO)C(=O)N1CCC[C@H]1C=O [t-Butyloxycarbonyl-seryl-prolinal, t-butyloxycarbonyl-seryl-prolinal] (Boc-Ser-Pro-aldehyde)
Retention Test Latency, 24 hr ([1]; 2.9 mg/kg i.p. after training): > 300.0 s | Retention Test Latency, 48 hr ([1]; 2.9 mg/kg i.p. after training): > 300.0 s | Retention Test Latency, 24 hr ([1]; 2.9 mg/kg p.o. after training): 262.9 s | Retention Test Latency, 48 hr ([1]; 2.9 mg/kg p.o. after training): 185.2 s | LD50 (Toxicity test (LD50)): > 1000 mg/kg

CC(C)(C)OC(=O)N[C@@H](Cc1ccc(O)cc1)C(=O)N1CCC[C@H]1C=O [t-Butyloxycarbonyl-tyrosyl-prolinal, t-butyloxycarbonyl-tyrosyl-prolinal] (Boc-Tyr-Pro-aldehyde)
Retention Test Latency, 24 hr ([1]; 3.6 mg/kg i.p. after training): 250.8 s | Retention Test Latency, 48 hr ([1]; 3.6 mg/kg i.p. after training): 206.9 s | Retention Test Latency, 24 hr ([1]; 3.6 mg/kg p.o. after training): 180.5 s | Retention Test Latency, 48 hr ([1]; 3.6 mg/kg p.o. after training): 192.1 s | LD50 (Toxicity test (LD50)): 933 mg/kg
